Target: unphosphorylated-BTK kinase domain (UP-BTK), GST-tagged human BTK (389-659aa) (Homo sapiens (Human), UniProt Q06187)
Experiment: BTK Kinase Lanthascreen Binding Assay
Conditions: for IC50: read-out: BTK_I_binding pIC50 (converted); for BTK_I_binding pIC50: Lanthascreen binding, 60 minutes incubation, pIC50 = negative log of the IC50 in molar
Protocol: BTK Kinase Lanthascreen Binding Assay:
A BTK kinase lanthascreen binding assay monitors compound binding to unphosphorylated-BTK kinase domain (UP-BTK), by competing with a fluorescent labeled tracer. […] Data were analyzed using Xlfit™ version 5.3 from ID Business Solutions (Guildford), Microsoft Excel add-in. pIC50 refers to the negative log of the IC50 in molar.

Chain of unphosphorylated-BTK kinase domain (UP-BTK), GST-tagged human BTK (389-659aa) (Q06187 389-659): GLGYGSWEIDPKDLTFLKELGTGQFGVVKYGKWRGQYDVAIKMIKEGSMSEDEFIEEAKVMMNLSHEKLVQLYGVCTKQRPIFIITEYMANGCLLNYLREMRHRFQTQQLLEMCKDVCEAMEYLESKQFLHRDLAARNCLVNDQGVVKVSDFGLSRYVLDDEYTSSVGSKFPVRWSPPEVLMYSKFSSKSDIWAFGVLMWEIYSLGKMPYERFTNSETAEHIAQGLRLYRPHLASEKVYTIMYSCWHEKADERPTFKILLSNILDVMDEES

SMILES | IC50 [nM] | BTK_I_binding pIC50
C=CC(=O)N[C@H]1CCC[C@@H](NC(=O)c2sc3nccc4c3c2NC(=O)N4c2ccc(OC(C)C)cc2C)C1 (single isomer, unassigned) [Example 275, N-((1R,3S)-3-Acrylamidocyclohexyl)-5-(*R)-(4-isopropoxy-2-methylphenyl)-4-oxo-4,5-dihydro-3H-1-thia-3,5,8-triazaacenaphthylene-2-carboxamide] | > 1000 | 
C=CC(=O)N[C@H]1CC[C@@H](NC(=O)c2sc3nccc4c3c2NC(=O)N4c2ccc(OC(C)C)cc2C)C1 (single isomer, unassigned) [Example 276, N-((1R,3S)-3-Acrylamidocyclopentyl)-5-(*R)-(4-isopropoxy-2-methylphenyl)-4-oxo-4,5-dihydro-3H-1-thia-3,5,8-triazaacenaphthylene-2-carboxamide] | > 1000 | 
C=CC(=O)N[C@@H]1CCC[C@H]1NC(=O)c1sc2nccc3c2c1NC(=O)N3c1ccc(Oc2ccccc2)nc1C (single isomer, unassigned) [Example 301, N-((1R,2R)-2-Acrylamidocyclopentyl)-5-(*S)-(2-methyl-6-phenoxypyridin-3-yl)-4-oxo-4,5-dihydro-3H-1-thia-3,5,8-triazaacenaphthylene-2-carboxamide] |  | 7.97
C=CC(=O)N[C@H]1CCCC[C@H]1NC(=O)c1sc2nccc3c2c1NC(=O)N3c1ccc(Oc2ccccc2)nc1C (single isomer, unassigned) [Example 303, N-((1R,2S)-2-Acrylamidocyclohexyl)-5-(*S)-(2-methyl-6-phenoxypyridin-3-yl)-4-oxo-4,5-dihydro-3H-1-thia-3,5,8-triazaacenaphthylene-2-carboxamide] |  | 8.40
C=CC(=O)N[C@H]1CCC[C@H]1NC(=O)c1sc2nccc3c2c1NC(=O)N3c1ccc(OC2CCOCC2)cc1C (single isomer, unassigned) [Example 304, N-((1R,2S)-2-Acrylamidocyclopentyl)-5-(*S)-(2-methyl-4-((tetrahydro-2H-pyran-4-yl)oxy)phenyl)-4-oxo-4,5-dihydro-3H-1-thia-3,5,8-triazaacenaphthylene-2-carboxamide] |  | 7.48
C=CC(=O)N[C@H]1CC[C@H](NC(=O)c2sc3nccc4c3c2NC(=O)N4c2cnc(Oc3ccccc3)cc2C)C1 (single isomer, unassigned) [Example 306, N-((1*S,3*S)-3-Acrylamidocyclopentyl)-5-(*S)-(4-methyl-6-phenoxypyridin-3-yl)-4-oxo-4,5-dihydro-3H-1-thia-3,5,8-triazaacenaphthylene-2-carboxamide] |  | 8.04
C=CC(=O)N[C@H]1CCC[C@H](NC(=O)c2sc3nccc4c3c2NC(=O)N4c2cnc(Oc3ccccc3)cc2C)C1 (single isomer, unassigned) [Example 308, N-((1*S,3*S)-3-Acrylamidocyclohexyl)-5-(*S)-(4-methyl-6-phenoxypyridin-3-yl)-4-oxo-4,5-dihydro-3H-1-thia-3,5,8-triazaacenaphthylene-2-carboxamide] |  | 7.78
C=CC(=O)N[C@H]1CCCC[C@H]1NC(=O)c1sc2nccc3c2c1NC(=O)N3c1cnc(OC2CCCC2)cc1C (single isomer, unassigned) [Example 309, N-((1R,2S)-2-Acrylamidocyclohexyl)-5-(*S)-(6-(cyclopentyloxy)-4-methylpyridin-3-yl)-4-oxo-4,5-dihydro-3H-1-thia-3,5,8-triazaacenaphthylene-2-carboxamide] |  | 7.91
C=CC(=O)N[C@H]1CCCC[C@H]1NC(=O)c1sc2nccc3c2c1NC(=O)N3c1cnc(OCC(C)C)cc1C (single isomer, unassigned) [Example 312, N-((1R,2S)-2-Acrylamidocyclohexyl)-5-(*S)-(6-isobutoxy-4-methylpyridin-3-yl)-4-oxo-4,5-dihydro-3H-1-thia-3,5,8-triazaacenaphthylene-2-carboxamide] |  | 8.01
C=CC(=O)N[C@@H]1CC[C@H](NC(=O)c2sc3nccc4c3c2NC(=O)N4c2ccc(Oc3ccccc3)cn2)C1 (single isomer, unassigned) [Example 313] |  | 7.83
C=CC(=O)N[C@H]1CCC[C@H](NC(=O)c2sc3nccc4c3c2NC(=O)N4c2ccc(Oc3ccccc3)cn2)C1 (single isomer, unassigned) [Example 315, N-((1*S,3*S)-3-Acrylamidocyclohexyl)-4-oxo-5-(5-phenoxypyridin-2-yl)-4,5-dihydro-3H-1-thia-3,5,8-triazaacenaphthylene-2-carboxamide] |  | 7.50
C=CC(=O)N[C@@H]1CCC[C@H]1NC(=O)c1sc2nccc3c2c1NC(=O)N3c1ccc(OC(C)C)cc1C (single isomer, unassigned) [Example 316, N-((1R,2R)-2-Acrylamidocyclopentyl)-5-(*S)-(4-isopropoxy-2-methylphenyl)-4-oxo-4,5-dihydro-3H-1-thia-3,5,8-triazaacenaphthylene-2-carboxamide] |  | 7.33
Cc1nc(Oc2ccccc2)ccc1N1C(=O)Nc2c(C(=O)N[C@@H]3CCC[C@@H]3N)sc3nccc1c23 (single isomer, unassigned) [Example 318, N-((1*R,2*S)-2-Aminocyclopentyl)-5-(*S)-(2-methyl-6-phenoxypyridin-3-yl)-4-oxo-4,5-dihydro-3H-1-thia-3,5,8-triazaacenaphthylene-2-carboxamide] |  | 6.46
C=CC(=O)N[C@H]1CC[C@H](NC(=O)c2sc3nccc4c3c2NC(=O)N4c2ccc(Oc3ccccc3)nc2)C1 (single isomer, unassigned) [Example 321, N-((1*S,3*S)-3-Acrylamidocyclopentyl)-4-oxo-5-(6-phenoxypyridin-3-yl)-4,5-dihydro-3H-1-thia-3,5,8-triazaacenaphthylene-2-carboxamide] |  | 7.71
C=CC(=O)N[C@@H]1CCCC[C@H]1NC(=O)c1sc2nccc3c2c1NC(=O)N3c1ccc(Oc2ccccc2)nc1C (single isomer, unassigned) [Example 322, N-((1R,2R)-2-Acrylamidocyclohexyl)-5-(*S)-(2-methyl-6-phenoxypyridin-3-yl)-4-oxo-4,5-dihydro-3H-1-thia-3,5,8-triazaacenaphthylene-2-carboxamide] |  | 6.81
C=CC(=O)N[C@H]1CCC[C@H](NC(=O)c2sc3nccc4c3c2NC(=O)N4c2ccc(Oc3ccccc3)nc2)C1 (single isomer, unassigned) [Example 323] |  | 7.13
C=CC(=O)N[C@H]1CC[C@@H](NC(=O)c2sc3nccc4c3c2NC(=O)N4c2ccc(Oc3ccccc3)cn2)C1 (single isomer, unassigned) [Example 328, N-((1*R,3*S)-3-Acrylamidocyclopentyl)-4-oxo-5-(5-phenoxypyridin-2-yl)-4,5-dihydro-3H-1-thia-3,5,8-triazaacenaphthylene-2-carboxamide] |  | 6.58
C=CC(=O)N[C@@H]1CC[C@@H](NC(=O)c2sc3nccc4c3c2NC(=O)N4c2cnc(Oc3ccccc3)cc2C)C1 (single isomer, unassigned) [Example 329, N-((1*R,3*R)-3-Acrylamidocyclopentyl)-5-(*S)-(4-methyl-6-phenoxypyridin-3-yl)-4-oxo-4,5-dihydro-3H-1-thia-3,5,8-triazaacenaphthylene-2-carboxamide] |  | 6.85
C=CC(=O)N[C@@H]1CCC[C@@H](NC(=O)c2sc3nccc4c3c2NC(=O)N4c2ccc(Oc3ccccc3)nc2)C1 (single isomer, unassigned) [Example 331, N-((1*R,3*R)-3-Acrylamidocyclohexyl)-4-oxo-5-(6-phenoxypyridin-3-yl)-4,5-dihydro-3H-1-thia-3,5,8-triazaacenaphthylene-2-carboxamide] |  | 6.66
C=CC(=O)N[C@@H]1CCC[C@@H](NC(=O)c2sc3nccc4c3c2NC(=O)N4c2cnc(Oc3ccccc3)cc2C)C1 (single isomer, unassigned) [Example 332, N-((1*R,3*R)-3-Acrylamidocyclohexyl)-5-(*S)-(4-methyl-6-phenoxypyridin-3-yl)-4-oxo-4,5-dihydro-3H-1-thia-3,5,8-triazaacenaphthylene-2-carboxamide] |  | 6.60
Cc1nc(Oc2ccccc2)ccc1N1C(=O)Nc2c(C(=O)N[C@@H]3CCCC[C@@H]3N)sc3nccc1c23 (single isomer, unassigned) [Example 333, N-((1R,2S)-2-Aminocyclohexyl)-5-(*S)-(2-methyl-6-phenoxypyridin-3-yl)-4-oxo-4,5-dihydro-3H-1-thia-3,5,8-triazaacenaphthylene-2-carboxamide] |  | 6.50
C=CC(=O)N[C@@H]1CC[C@@H](NC(=O)c2sc3nccc4c3c2NC(=O)N4c2ccc(Oc3ccccc3)nc2)C1 (single isomer, unassigned) [Example 334, N-((1*R,3*R)-3-Acrylamidocyclopentyl)-4-oxo-5-(6-phenoxypyridin-3-yl)-4,5-dihydro-3H-1-thia-3,5,8-triazaacenaphthylene-2-carboxamide] |  | 6.81
Cc1cc(CC(C)C)ncc1N1C(=O)Nc2c(C(=O)N[C@@H]3CCCC[C@@H]3N)sc3nccc1c23 (single isomer, unassigned) [Example 335, N-((1R,2S)-2-Aminocyclohexyl)-5-(*S)-(6-isobutyl-4-methylpyridin-3-yl)-4-oxo-4,5-dihydro-3H-1-thia-3,5,8-triazaacenaphthylene-2-carboxamide] |  | 6.38
